Columns and labels:
[1] = target: T1, nuclease P1 (Penicillium citrinum, UniProt P24289); experiment: Endonuclease (nuclease P1) turnover rate for hydrolysis of modified dinucleoside monophosphates; assay type: biochemical; conditions: 6 nmol substrate in 100 μl 60 mM sodium acetate buffer pH 5.3 with zinc chloride, 50 ng nuclease P1, 37° C., HPLC analysis
T1 sequence (P24289 1-270): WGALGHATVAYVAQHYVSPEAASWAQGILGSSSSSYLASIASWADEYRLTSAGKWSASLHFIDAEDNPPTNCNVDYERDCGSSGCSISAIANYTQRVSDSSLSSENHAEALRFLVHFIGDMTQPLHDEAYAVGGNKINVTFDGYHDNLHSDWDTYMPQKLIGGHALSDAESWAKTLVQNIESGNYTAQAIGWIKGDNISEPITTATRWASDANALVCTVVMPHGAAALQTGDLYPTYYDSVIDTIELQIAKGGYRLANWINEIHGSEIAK
Experimental: The endonuclease turnover rate was measured in terms of the number of substrate molecules hydrolyzed per minute per molecule of enzyme. The substrates were modified dinucleoside monophosphates comprising the DNA base modifications illustrated in FIG. 1. The respective unmodified dinucleoside monophosphates were purchased commercially, with the exceptions of d(GpG), d(GpC), d(GpA), and d(GpT) which were prepared using methods previously described (Paul et al., 1988, Int. J. Radiat. Biol. 54:403-415). A solution of each the unmodified dinucleoside monophosphates was X-irradiated, and the corresponding modified dinucleoside monophosphate was isolated by reverse-phase HPLC (see, e.g., Schroder et al., 1995, Int. J. Radiat. Biol. 68:509-23; and Box et al., 1995, In Radiation Damage in DNA, eds. Fuciarelli and Zimbrick, publs. Battelle Press). The one exception to producing modified dinucleoside monophosphates was the production of the DNA base modification thymine glycol. Modified dinucleoside monophosphates bearing the thymine glycol modification were prepared by treating dTpA with osmium tetroxide (see, e.g., Belfi et al., 1986, supra). The DNA base modifications were identified using proton nuclear magnetic resonance spectroscopy (see, e.g., Schroder et al., 1995, Int. J. Radiat. Biol. 68:509-23).
Concentrations of the modified dinucleoside monophosphates were determined spectrophotometrically at 260 nm. The rates of hydrolysis for the modified dinucleoside monophosphates by endonuclease were obtained from measurements of equimolar amounts of the substrate modified dinucleoside monophosphate (6 nmol) in 100 μl of 60 mM sodium acetate buffer (pH 5.3, containing […] zinc chloride). Hydrolysis was initiated by the addition of the endonuclease (50 ng of nuclease P1 in 2 μl buffer) and the reactants were incubated in a 37° C. water bath. At varying times, hydrolysis was terminated by the addition of 15 μl of 1M Tris, and rapid freezing in a liquid nitrogen bath. The products of digestion were analyzed by injecting the digest onto a C-18 reverse phase HPLC column, with elution using a 5%-53% linear gradient of CH3 CN/0.1M ammonium acetate buffer, pH 7.0 at a 1.0 ml/minute flow rate. Moles of protein were calculated from the weight of the material and the known molecular weights for the constituents. The results of the measurement of the endonuclease turnover rates (R, as measured in terms of molecules hydrolyzed per minute per molecule of enzyme) for each of the modified dinucleoside monophosphates tested is illustrated in Table 1.

[2] = target: T1, nuclease P1; conditions: endonucleases such as nuclease P1; Maccubbin et al., 1993; cited from earlier work

Structure (SMILES)	endonuclease turnover rate R [1]	hydrolysis by endonuclease of the phosphoester bond 3' to the modified nucleoside [2]
Nc1ccn([C@H]2C[C@H](O)[C@@H](COP(=O)(O)O[C@H]3C[C@H](NC=O)O[C@@H]3CO)O2)c(=O)n1 [d(T*pC) formamido remnant]	no hydrolysis detected	
Nc1ncnc2c1ncn2[C@H]1C[C@H](O)[C@@H](COP(=O)(O)O[C@H]2C[C@H](NC=O)O[C@@H]2CO)O1 [d(T*pA) formamido remnant]	no hydrolysis detected	do not hydrolyze
Nc1nc2c(ncn2[C@H]2C[C@H](O)[C@@H](COP(=O)(O)O[C@H]3C[C@H](NC=O)O[C@@H]3CO)O2)c(=O)[nH]1 [d(T*pG) formamido remnant]	no hydrolysis detected	
Cc1cn([C@H]2C[C@H](O)[C@@H](COP(=O)(O)O[C@H]3C[C@H](NC=O)O[C@@H]3CO)O2)c(=O)[nH]c1=O [d(T*pT) formamido remnant]	no hydrolysis detected	
